Data taken from patent publication US20250333805A1, “HERICIUM ERINACEUS STRAIN HE015, MOLECULAR MARKERS AND USES THEREOF” (INFINITUS (CHINA) COMPANY LTD., priority 2024, published 2025).

Test system: mice with chronic alcohol-induced gastric mucosal damage
Assay: Chronic alcohol-induced gastric mucosal damage mice model (60% ethanol intragastrically): body weight, survival, HE staining of gastric tissue
Format: in vivo, Male KM mice
Settings: for body weight of the mice at the end of the experiment, compared with Model: extracts 10 mg/mL, Lansoprazole 0.35 mg/mL, 0.3 mL intragastrically once daily for 2 weeks, 60% ethanol in second week, P<0.05 where significant
Description: Male KM mice, SPF grade, body weight of 18-22 g, 5-6 weeks of age, feeding temperature and humidity: 23±1° C. and 55±10%; 12 h day-and-night discontinuous illumination was used; conditions of the raising room were always kept stable, thereby ensuring the reliability of the test result. The mice took food and drank water freely.
Male KM mice were adaptively raised for 7 d, and then randomly divided into the following 8 groups: • Blank control group 1: Control • Model control group 1: Model • Administration group 1: Positive • Administration group 2: HEF • Administration group 3: HEFP • Administration group 4: HEFX • Administration group 5: HESP • Administration group 6: HESX.
There were 14 mice in the Model group, and 13 mice in the other groups, and the mice were fed with an ordinary fodder.
Experimental duration is 2 weeks:
First week: the mice in each administration group were prophylactically administered intragastrically once every day; and its administration concentration is shown in Table 9; meanwhile, the mice in the Control and Model groups were administered 0.3 mL of pure water intragastrically.
Second week: the mice in the Model and each administration groups were administered 0.3 mL of 60% ethanol intragastrically once per day for modeling, to induce a chronic alcohol-induced gastric mucosal damage mice model, and modeling was performed for a week; meanwhile, the mice in the administration groups were administered (administration concentration and dosage were the same as those in the first week), the protective effects of different administration groups on gastric mucosa were observed.
Administration was stopped the night before the end of the experiment; the mice were not allowed to take food, but allowed to drink water. Eyeballs were picked out and blood was collected, and then the mice were killed by cervical dislocation; gastric tissues were taken and placed into 4% paraformaldehyde stationary solution for immobilization, for use in pathological examination.

Cc1c(OCC(F)(F)F)ccnc1C[S+]([O-])c1nc2ccccc2[nH]1 (stereo not drawn) [Positive, Lansoprazole]
body weight of the mice at the end of the experiment, compared with Model (FIG. 5A): significantly greater than that in the Model | body weight of the mice at the end of the experiment, compared with Model (FIG. 5A, listed as Lansoprazole): may increase the body weight | death count of the mice at the end of the experiment (same regimen, compared with other groups, FIG. 5B): obviously higher than that in other groups | HE staining of mice gastric tissues (gastric mucosa morphology) (same regimen, gastric tissue at end of experiment, FIG. 6): necrosis exfoliation of partial mucosal epithelial cells of the gastric tissue, loose arrangement of partial cells and infiltration of a small amount of inflammatory cells | survival rate of the mice at the end of the experiment, compared with Model (same regimen, survival curve FIG. 5B): slightly higher than that of the Model group | body weight of the mice during modeling, compared with Control (second week, 60% ethanol modeling, P<0.01, FIG. 5A): lower than that in the Control
